The source of these data is ChEMBL document CHEMBL1201862, “PubChem BioAssay data set” (2004).

Calls of active or inactive are those of the source.

One assay concerns the target Large T antigen (Simian virus 40, UniProt P03070). The format is functional, Betapolyomavirus macacae.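 Also: Confirmatory-stage PubChem screen for compounds that inhibit SV40 T antigen.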
For assay [1], the target named is Intestinal-type alkaline phosphatase (Homo sapiens, UniProt P09923). Put plainly: activation of human intestinal alkaline phosphatase – biochemical, dose response (AID 488873). The format is functional.
Intestinal-type alkaline phosphatase (Homo sapiens, UniProt P09923), sequence (P09923 whole entry): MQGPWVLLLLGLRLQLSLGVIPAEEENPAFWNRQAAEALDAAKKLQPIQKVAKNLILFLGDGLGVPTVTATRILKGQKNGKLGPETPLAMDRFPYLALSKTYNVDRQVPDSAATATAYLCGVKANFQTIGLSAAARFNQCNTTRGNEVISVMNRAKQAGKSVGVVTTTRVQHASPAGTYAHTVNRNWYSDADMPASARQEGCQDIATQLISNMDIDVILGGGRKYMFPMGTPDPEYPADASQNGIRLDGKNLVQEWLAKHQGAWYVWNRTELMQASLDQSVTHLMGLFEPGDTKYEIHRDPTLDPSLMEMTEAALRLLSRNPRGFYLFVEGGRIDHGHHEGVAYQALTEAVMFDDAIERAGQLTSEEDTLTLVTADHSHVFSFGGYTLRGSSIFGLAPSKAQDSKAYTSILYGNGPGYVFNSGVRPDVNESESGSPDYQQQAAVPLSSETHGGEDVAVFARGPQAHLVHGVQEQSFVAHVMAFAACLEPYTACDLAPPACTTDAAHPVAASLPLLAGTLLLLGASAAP
For another assay, the target named is ORF 73 (Human herpesvirus 8, UniProt O40947). Put plainly: KSHV LANA DNA-binding disruption – biochemical, fluorescence polarization, cherry-picked samples, dose response (AID 504725).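 Also: fluorescence polarization of a labeled DNA duplex reporting LANA DNA binding; potency is for inhibitors that block LANA binding to the DNA.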 Also noted: species or system Human gammaherpesvirus 8. Background: In fluorescence polarisation assays a small probe gives low polarisation when free and higher when bound to something large.
ORF 73, sequence (O40947 whole entry): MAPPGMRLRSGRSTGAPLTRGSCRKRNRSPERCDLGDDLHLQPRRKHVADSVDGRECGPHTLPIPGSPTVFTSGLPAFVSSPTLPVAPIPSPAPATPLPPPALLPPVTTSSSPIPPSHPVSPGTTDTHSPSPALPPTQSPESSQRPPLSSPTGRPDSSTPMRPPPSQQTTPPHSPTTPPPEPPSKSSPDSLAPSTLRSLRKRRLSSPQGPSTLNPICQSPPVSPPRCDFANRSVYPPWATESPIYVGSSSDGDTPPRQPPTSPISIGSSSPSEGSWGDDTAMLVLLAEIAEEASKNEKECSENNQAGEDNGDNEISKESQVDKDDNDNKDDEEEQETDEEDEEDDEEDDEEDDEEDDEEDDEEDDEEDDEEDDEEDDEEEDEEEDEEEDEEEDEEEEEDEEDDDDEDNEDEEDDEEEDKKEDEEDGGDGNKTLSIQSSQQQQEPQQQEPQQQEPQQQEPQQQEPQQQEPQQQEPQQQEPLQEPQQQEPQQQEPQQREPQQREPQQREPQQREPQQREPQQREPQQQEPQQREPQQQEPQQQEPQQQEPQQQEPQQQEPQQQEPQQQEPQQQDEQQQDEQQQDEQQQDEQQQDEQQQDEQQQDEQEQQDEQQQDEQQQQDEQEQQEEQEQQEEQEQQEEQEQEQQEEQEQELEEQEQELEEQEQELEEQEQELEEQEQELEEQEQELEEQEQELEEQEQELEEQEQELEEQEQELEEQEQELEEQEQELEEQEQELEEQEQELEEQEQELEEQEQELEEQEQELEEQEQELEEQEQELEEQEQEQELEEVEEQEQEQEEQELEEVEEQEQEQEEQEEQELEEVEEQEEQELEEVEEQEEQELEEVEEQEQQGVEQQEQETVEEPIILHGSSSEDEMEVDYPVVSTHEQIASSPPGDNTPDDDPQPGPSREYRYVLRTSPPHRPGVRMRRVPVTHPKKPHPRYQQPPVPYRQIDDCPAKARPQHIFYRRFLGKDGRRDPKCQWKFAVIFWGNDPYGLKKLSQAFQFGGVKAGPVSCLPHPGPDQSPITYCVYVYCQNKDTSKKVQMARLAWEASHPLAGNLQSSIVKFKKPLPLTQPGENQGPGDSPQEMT

Assay [2] has as its target Intestinal-type alkaline phosphatase (Mus musculus, UniProt P24822). Nature of the assay: mouse intestinal alkaline phosphatase activators, dose response, biochemical, luminescence, uHTS hits (AID 488783). The format is functional.
The target of assay [3] is T1, Rac GTPase-activating protein 1 (Homo sapiens, UniProt Q9H0H5).
T1 sequence (Q9H0H5 whole entry): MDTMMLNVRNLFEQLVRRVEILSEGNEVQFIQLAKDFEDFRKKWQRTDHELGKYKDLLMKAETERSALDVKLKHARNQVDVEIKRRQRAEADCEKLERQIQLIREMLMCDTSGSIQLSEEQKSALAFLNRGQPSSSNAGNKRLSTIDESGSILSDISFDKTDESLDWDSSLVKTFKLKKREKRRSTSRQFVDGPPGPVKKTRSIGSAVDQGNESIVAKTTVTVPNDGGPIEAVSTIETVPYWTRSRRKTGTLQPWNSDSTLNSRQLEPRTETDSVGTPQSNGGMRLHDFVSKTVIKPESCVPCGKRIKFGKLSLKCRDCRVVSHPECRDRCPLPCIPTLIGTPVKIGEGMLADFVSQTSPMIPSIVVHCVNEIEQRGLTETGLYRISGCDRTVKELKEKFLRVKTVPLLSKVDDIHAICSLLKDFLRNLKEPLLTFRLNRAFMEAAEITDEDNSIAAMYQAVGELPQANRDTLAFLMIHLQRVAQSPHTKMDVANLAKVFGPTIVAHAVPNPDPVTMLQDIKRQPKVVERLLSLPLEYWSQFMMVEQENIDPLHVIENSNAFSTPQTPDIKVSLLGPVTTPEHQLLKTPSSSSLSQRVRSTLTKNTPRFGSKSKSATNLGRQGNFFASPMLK
Put plainly: blockers of MgcRacGAP-driven Rac1 GTP hydrolysis – biochemical, ADP Hunter fluorescence, primary and confirmatory, confirmation (AID 624330). The format is functional.

Assay [4] deals with T2, Alkaline phosphatase, tissue-nonspecific isozyme (Homo sapiens, UniProt P05186).
T2 sequence (P05186 whole entry): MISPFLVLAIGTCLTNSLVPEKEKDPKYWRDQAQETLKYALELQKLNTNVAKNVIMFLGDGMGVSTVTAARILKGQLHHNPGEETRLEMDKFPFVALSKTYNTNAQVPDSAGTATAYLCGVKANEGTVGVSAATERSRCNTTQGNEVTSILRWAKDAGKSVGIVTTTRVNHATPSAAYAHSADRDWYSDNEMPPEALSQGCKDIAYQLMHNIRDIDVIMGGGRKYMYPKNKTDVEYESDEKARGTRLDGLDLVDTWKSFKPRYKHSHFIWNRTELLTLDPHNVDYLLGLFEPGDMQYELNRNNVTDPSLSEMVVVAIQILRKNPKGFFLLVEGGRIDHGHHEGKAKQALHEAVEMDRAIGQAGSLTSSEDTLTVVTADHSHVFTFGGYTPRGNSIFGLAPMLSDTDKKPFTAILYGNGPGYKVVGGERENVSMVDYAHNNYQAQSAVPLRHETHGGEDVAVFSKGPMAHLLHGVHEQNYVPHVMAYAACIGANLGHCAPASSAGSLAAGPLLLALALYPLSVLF
Put plainly: activation of tissue-nonspecific alkaline phosphatase – biochemical, TNAP isozyme, mouse IAP uHTS hits, selectivity assay for mouse IAP activator project, dose response (AID 488880). The format is functional.

In assay [5] the target is T3, Histone-lysine N-methyltransferase NSD2 (Homo sapiens, UniProt O96028).
T3 sequence (O96028 whole entry): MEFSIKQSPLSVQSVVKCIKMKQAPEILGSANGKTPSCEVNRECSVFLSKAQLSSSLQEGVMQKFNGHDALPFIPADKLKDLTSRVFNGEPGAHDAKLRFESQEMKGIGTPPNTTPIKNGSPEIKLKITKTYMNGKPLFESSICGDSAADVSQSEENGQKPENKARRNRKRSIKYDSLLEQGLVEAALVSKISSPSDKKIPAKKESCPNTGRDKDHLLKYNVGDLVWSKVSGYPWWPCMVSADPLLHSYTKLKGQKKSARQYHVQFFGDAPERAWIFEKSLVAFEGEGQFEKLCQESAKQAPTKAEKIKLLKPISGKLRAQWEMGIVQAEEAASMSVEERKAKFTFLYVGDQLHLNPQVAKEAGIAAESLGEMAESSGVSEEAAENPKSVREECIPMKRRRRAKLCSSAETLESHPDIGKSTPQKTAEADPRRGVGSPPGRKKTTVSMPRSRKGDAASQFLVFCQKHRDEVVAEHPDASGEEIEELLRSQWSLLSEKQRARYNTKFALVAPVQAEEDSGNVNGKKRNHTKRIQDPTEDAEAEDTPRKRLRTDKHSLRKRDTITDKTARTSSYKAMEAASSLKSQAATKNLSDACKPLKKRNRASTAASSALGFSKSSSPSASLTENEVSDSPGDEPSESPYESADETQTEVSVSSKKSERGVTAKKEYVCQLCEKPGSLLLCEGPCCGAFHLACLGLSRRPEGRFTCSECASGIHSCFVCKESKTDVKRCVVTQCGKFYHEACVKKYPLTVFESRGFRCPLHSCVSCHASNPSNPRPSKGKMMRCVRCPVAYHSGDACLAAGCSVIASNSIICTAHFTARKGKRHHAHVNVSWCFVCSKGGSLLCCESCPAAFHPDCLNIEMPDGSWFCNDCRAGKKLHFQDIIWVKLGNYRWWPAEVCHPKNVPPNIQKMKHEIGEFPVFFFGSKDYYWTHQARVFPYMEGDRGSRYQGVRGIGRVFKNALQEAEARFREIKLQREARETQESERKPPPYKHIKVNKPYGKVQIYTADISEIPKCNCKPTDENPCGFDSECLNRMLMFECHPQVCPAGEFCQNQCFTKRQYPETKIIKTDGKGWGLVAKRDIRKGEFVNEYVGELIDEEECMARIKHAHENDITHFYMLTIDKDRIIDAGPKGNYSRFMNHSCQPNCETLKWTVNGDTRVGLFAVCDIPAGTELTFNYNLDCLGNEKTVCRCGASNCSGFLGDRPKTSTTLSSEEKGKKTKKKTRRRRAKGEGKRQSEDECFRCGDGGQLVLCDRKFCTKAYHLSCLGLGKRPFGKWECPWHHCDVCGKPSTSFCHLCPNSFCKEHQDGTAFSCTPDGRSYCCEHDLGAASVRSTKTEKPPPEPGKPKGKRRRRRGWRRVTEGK
The format is biochemical.

Assay [6] has as its target T4, Kappa-type opioid receptor (Homo sapiens, UniProt P41145). Put plainly: kappa opioid receptor activation by imaging – image-based, set 3, SAR follow-up (AID 488833). The format is functional.
For assay [7], the target named is T4, Kappa-type opioid receptor. Put plainly: SAR analysis of small molecule agonists of the kappa opioid receptor via a luminescent beta-arrestin assay - Set 3. [Related pubchem assays (depositor defined):AID1777, AID1785, AID1786, AID1966, AID2133, AID2136, AID2284, AID2500]. The format is functional.
Assay [8] concerns the target T5, Mu-type opioid receptor (Homo sapiens, UniProt P35372). Put plainly: SAR Analysis of Agonists of the MOR Receptor using an Image-Based Assay - Set 3. [Related pubchem assays (depositor defined):AID1777, AID1785, AID1786, AID1966, AID2133, AID2136, AID2284, AID2285, AID2352]. The format is functional.
Assay [9] concerns the target T6, Delta-type opioid receptor (Homo sapiens, UniProt P41143). Put plainly: SAR Analysis of Agonists of the DOR Receptor using an Image-Based Assay - Set 3. [Related pubchem assays (depositor defined):AID1777, AID1786]. The format is functional.
The target of assay [10] is T5, Mu-type opioid receptor. Put plainly: mu opioid receptor blockers – image-based, SAR follow-up (AID 2420).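 Also: compounds added before stimulation of receptor with agonist DAMGO.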 The format is functional.
The target in assay [11] is T4, Kappa-type opioid receptor. Put plainly: kappa opioid receptor blockers, cell-based, luminescence, beta-arrestin, SAR follow-up (AID 2285). The format is functional.
Assay [12] deals with T5, Mu-type opioid receptor. Nature of the assay: mu opioid receptor activators, image-based, SAR follow-up (AID 2352). The format is functional.
The target of assay [13] is T4, Kappa-type opioid receptor. Nature of the assay: kappa opioid receptor activation potency – imaging, image-based, SAR follow-up (AID 2359). The format is functional.
Assay [14] addresses T4, Kappa-type opioid receptor. Nature of the assay: kappa opioid receptor blockers, image-based, SAR follow-up (AID 2348). The format is functional.
The target of assay [15] is T6, Delta-type opioid receptor. Nature of the assay: DOR agonists, SAR follow-up, image-based (AID 2370). The format is functional.
The target in assay [16] is T6, Delta-type opioid receptor. Put plainly: delta opioid receptor blockers – image-based, SAR follow-up (AID 2357). The format is functional.

T6 sequence (P41143 whole entry): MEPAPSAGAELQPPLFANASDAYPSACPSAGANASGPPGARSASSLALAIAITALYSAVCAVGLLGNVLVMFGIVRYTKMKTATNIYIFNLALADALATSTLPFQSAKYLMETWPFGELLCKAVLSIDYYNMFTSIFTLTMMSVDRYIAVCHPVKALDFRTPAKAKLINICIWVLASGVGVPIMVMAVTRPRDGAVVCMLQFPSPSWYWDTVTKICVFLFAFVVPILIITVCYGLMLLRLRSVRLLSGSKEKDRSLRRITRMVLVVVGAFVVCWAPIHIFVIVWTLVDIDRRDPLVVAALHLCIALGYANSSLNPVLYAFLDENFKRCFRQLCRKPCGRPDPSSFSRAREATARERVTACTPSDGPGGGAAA
T5 sequence (P35372 whole entry): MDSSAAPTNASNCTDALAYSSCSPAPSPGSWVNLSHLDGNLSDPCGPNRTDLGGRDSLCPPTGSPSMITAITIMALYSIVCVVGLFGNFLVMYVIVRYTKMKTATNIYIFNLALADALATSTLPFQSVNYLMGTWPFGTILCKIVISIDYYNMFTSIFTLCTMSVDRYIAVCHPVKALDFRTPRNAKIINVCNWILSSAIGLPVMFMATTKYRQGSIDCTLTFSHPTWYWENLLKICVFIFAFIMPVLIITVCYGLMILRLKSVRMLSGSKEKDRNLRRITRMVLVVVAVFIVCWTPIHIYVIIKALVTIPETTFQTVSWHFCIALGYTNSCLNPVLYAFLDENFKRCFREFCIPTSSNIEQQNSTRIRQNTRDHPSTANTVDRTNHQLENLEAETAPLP
T4 sequence (P41145 whole entry): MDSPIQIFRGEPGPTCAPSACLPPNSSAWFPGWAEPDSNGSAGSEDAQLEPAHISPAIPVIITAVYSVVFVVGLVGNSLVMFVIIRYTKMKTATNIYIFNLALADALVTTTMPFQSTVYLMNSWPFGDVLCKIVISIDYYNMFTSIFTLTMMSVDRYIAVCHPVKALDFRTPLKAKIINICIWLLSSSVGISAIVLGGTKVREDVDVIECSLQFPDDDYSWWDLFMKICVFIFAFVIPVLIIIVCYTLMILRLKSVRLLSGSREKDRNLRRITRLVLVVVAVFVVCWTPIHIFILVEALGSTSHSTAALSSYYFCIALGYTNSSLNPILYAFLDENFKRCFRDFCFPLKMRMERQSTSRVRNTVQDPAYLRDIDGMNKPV
Large T antigen, sequence (P03070 whole entry): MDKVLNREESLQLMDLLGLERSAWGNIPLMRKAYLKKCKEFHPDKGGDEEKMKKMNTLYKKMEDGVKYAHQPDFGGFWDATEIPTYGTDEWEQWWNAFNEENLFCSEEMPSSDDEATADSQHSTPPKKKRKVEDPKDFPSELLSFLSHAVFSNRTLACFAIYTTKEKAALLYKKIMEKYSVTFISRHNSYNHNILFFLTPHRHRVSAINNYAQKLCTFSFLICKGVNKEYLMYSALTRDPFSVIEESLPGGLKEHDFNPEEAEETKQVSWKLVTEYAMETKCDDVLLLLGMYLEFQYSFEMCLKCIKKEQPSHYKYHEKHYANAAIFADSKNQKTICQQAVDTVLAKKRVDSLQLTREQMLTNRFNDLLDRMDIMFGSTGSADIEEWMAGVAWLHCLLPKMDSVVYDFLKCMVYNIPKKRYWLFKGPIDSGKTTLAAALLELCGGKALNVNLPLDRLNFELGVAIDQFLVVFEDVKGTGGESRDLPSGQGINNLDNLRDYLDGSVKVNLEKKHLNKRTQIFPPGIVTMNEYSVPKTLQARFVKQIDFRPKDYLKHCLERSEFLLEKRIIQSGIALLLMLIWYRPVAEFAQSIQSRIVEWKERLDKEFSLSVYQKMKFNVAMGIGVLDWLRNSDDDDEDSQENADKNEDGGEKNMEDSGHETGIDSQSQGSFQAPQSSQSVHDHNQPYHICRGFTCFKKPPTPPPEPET
Intestinal-type alkaline phosphatase (Mus musculus, UniProt P24822), sequence (P24822 whole entry): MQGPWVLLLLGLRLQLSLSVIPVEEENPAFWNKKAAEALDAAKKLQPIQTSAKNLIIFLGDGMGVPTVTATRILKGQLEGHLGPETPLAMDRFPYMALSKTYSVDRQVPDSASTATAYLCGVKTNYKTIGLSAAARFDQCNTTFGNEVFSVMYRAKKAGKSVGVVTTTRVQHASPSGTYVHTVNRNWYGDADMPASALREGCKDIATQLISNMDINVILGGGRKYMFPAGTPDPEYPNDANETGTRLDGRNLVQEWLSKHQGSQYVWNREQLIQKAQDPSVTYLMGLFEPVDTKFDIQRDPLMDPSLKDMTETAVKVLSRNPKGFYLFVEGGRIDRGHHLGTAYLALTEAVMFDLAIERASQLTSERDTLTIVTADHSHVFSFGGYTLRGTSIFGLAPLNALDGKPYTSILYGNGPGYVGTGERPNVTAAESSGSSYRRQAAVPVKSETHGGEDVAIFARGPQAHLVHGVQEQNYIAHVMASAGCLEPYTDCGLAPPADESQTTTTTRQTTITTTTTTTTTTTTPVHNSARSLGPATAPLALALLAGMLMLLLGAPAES

Consider `N=C1/C(=C/c2ccc(O)c(O)c2)C(=O)N=C2SC(CC(=O)N3CCCC3)=NN12`, for which the values for the 50% inhibitory concentration (IC50) (at Large T antigen; in assay [3]) were 7.22 µM (active) and 66 µM (active), respectively. Moreover, the EC50 in [1] was 9.7 µM (active); in assay [2] it was 100 µM (inactive); in assay [4], 9.2 µM (active). Besides, the AC50 on ORF 73 was 161 µM (active); in [5], 3.26 µM (active).
Regarding `COc1cccc(CSc2nnc(-c3ccccn3)n2Cc2ccco2)c1`, the EC50 in [6] is > 32 µM (inactive); in assay [7] it was 15.3 µM (inactive); on Mu-type opioid receptor [8] it was > 32 µM (inactive); in [9], > 64 µM (inactive).
Take `COc1ccc(N2CCN(CCCNC(=O)Cn3c(=O)c4cccn4c4ccccc43)CC2)cc1`: the IC50 on Mu-type opioid receptor [10] was > 32 µM (inactive); in assay [11], 4.32 µM (active); in [14], 15.3 µM (inactive); in [16], > 32 µM (inactive). Also, the EC50 (at Mu-type opioid receptor [12]; in assay [13]; in assay [15]) was > 32 µM (inactive) in each case.

A word on the IC50: it is the concentration that gives 50% inhibition. In general, EC50 refers to the midpoint of the concentration-response curve. For orientation: AC50 means the concentration giving half of the maximal activity seen.
